Assay results published in ChEMBL document CHEMBL4680314, “Discovery of potent glycogen synthase kinase 3/cholinesterase inhibitors with neuroprotection as potential therapeutic agent for Alzheimer's disease” (Bioorg Med Chem, 2021).
Activity calls are given as the source filed them. The calls are words filed in the database; no cut-off is given here.

What was measured:
[1] = target: Cholinesterase (Homo sapiens, UniProt P06276); assay: Inhibition of human BChE using butyrylthiocholineiodide as substrate incubated for 10 mins by Ellman's method
Chain of Cholinesterase (P06276 whole entry): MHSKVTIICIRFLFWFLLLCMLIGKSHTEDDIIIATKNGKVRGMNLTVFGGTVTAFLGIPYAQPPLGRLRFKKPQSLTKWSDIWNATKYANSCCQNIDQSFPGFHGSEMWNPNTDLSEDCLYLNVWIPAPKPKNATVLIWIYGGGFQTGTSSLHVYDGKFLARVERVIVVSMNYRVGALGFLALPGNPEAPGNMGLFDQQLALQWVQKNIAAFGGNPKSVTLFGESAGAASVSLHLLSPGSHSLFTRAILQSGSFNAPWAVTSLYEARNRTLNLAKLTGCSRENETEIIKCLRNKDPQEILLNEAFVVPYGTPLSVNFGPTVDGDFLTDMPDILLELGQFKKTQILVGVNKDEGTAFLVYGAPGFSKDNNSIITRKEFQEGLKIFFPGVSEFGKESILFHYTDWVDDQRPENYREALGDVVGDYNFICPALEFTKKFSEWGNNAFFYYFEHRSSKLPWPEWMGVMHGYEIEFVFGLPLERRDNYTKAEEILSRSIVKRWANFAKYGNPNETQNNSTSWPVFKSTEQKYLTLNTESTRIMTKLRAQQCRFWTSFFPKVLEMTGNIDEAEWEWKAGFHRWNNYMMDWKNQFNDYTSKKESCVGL

[2] = target: Mitogen-activated protein kinase 1 (Homo sapiens, UniProt P28482); assay: Inhibition of ERK2 (unknown origin) by ATP competitive based analysis
Chain of Mitogen-activated protein kinase 1 (P28482 whole entry): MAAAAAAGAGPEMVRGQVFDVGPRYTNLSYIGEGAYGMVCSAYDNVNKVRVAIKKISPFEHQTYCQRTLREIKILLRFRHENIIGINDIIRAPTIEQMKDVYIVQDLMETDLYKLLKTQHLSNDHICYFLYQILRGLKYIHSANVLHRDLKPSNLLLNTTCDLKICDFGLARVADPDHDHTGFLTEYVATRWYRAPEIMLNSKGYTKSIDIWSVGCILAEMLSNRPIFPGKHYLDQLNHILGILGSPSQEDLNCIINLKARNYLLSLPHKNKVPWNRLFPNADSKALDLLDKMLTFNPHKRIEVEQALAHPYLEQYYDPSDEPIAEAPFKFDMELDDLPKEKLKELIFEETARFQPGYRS

[3] = target: Mitogen-activated protein kinase 14 (Homo sapiens, UniProt Q16539); assay: Inhibition of p38MAPK alpha (unknown origin) by ATP competitive based analysis
Chain of Mitogen-activated protein kinase 14 (Q16539 whole entry): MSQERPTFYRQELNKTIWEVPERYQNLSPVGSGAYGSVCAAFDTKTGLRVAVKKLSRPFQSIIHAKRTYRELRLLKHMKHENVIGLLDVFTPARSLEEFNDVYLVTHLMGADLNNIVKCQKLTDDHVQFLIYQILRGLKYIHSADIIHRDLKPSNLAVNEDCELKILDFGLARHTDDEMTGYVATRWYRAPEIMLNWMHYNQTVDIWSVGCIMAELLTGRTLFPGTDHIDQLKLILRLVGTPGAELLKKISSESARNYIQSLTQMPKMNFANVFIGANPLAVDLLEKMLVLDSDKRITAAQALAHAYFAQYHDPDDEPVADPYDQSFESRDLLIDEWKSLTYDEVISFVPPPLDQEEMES

[4] = target: Mitogen-activated protein kinase 9 (Homo sapiens, UniProt P45984); assay: Inhibition of JNK2 (unknown origin) by ATP competitive based analysis
Chain of Mitogen-activated protein kinase 9 (P45984 whole entry): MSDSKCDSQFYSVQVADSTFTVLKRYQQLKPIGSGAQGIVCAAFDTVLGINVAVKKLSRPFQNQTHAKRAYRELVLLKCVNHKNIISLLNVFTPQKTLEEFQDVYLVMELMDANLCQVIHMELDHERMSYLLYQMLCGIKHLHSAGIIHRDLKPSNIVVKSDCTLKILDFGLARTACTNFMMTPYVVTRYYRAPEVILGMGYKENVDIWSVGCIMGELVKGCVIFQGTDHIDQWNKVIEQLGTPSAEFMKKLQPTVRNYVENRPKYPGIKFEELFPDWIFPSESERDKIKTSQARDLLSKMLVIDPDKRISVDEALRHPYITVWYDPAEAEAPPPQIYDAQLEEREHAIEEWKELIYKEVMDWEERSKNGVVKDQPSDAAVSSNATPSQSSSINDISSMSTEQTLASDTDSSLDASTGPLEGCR

[5] = target: Cyclin-dependent kinase 2 (Homo sapiens, UniProt P24941); assay: Inhibition of CDK2 (unknown origin) by ATP competitive based analysis
[6] = target: Cyclin-dependent kinase 6 (Homo sapiens, UniProt Q00534); assay: Inhibition of CDK6 (unknown origin) by ATP competitive based analysis
Chain of Cyclin-dependent kinase 6 (Q00534 whole entry): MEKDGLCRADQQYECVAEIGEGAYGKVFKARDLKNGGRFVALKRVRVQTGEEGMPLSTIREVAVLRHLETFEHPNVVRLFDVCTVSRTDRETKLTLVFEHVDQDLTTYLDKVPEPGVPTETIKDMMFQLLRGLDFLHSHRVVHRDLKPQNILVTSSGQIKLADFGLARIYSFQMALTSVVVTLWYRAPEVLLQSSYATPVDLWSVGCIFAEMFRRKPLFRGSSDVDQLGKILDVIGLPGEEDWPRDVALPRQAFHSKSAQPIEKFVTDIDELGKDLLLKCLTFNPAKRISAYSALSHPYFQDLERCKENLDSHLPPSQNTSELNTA

[7] = target: Glycogen synthase kinase-3 beta (Mus musculus, UniProt Q9WV60); assay: Inhibition of GSK3beta in mouse N2a cells overexpressing human tau assessed as reduction in tau phosphorylation at Ser396 residue incubated for 6 hrs by Western blot analysis; type: cell-based
Chain of Glycogen synthase kinase-3 beta (Mus musculus, UniProt Q9WV60) (Q9WV60 whole entry): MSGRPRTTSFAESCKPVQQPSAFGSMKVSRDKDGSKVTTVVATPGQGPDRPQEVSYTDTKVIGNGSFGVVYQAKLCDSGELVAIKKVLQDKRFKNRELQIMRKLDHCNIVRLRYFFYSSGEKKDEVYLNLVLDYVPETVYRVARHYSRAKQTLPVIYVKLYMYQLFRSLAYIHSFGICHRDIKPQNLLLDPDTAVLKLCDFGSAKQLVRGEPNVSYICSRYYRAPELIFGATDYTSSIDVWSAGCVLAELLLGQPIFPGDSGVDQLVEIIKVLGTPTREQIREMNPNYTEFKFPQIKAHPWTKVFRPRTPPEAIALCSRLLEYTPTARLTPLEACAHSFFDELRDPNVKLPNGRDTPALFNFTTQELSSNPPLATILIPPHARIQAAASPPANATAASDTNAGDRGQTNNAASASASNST

[8] = target: Glycogen synthase kinase-3 beta (Mus musculus) (UniProt Q9WV60); assay: Inhibition of GSK3beta in mouse N2a cells overexpressing human tau assessed as reduction in tau phosphorylation at Ser396 residue at 6 uM incubated for 6 hrs by Western blot analysis relative to control; type: cell-based
Chain of Glycogen synthase kinase-3 beta (Mus musculus) (Q9WV60 whole entry, looked up): as the sequence (Q9WV60 whole entry) above

[9] = tested on: N2a; assay: Effect on tau protein level in mouse N2a cells overexpressing human tau at 0.074 to 6 uM incubated for 6 hrs by Western blot analysis; type: functional, cell-based; details: dose 0.074-6 µM
[10] = target: Glycogen synthase kinase-3 beta (Mus musculus) (UniProt Q9WV60); assay: Inhibition of GSK3beta in mouse N2a cells overexpressing human tau assessed as tau phosphorylation at Ser396 residue at 0.67 uM incubated for 6 hrs by Western blot analysis (reference value: […] %); type: cell-based; design: scale not given: the % may be the effect or the level left
[11] = tested on: BV-2; assay: Anti-inflammatory activity in mouse BV-2 cells assessed as reduction in LPS-induced IL-1beta production incubated for 1 hr followed by LPS stimulation and measured after 24 hrs by ELISA; type: functional, cell-based; details: dose 2-8 µM, time 25.0 hrs
[12] = tested on: BV-2; assay: Anti-inflammatory activity in mouse BV-2 cells assessed as reduction in LPS-induced TNFalpha production at 8 uM incubated for 1 hr followed by LPS stimulation and measured after 24 hrs by ELISA relative to control; type: functional; details: time 25 hrs
[13] = tested on: BV-2; assay: Anti-inflammatory activity in mouse BV-2 cells assessed as reduction in LPS-induced TNFalpha expression at 4 uM incubated for 1 hr followed by LPS stimulation and measured after 24 hrs by immunofluorescence based laser confocal microscopy; type: functional, cell-based; details: time 25.0 hrs
[14] = tested on: BV-2; assay: Anti-inflammatory activity in mouse BV-2 cells assessed as reduction in LPS-induced IL-1beta expression at 4 uM incubated for 1 hr followed by LPS stimulation and measured after 24 hrs by immunofluorescence based laser confocal microscopy; type: functional, cell-based; details: time 25.0 hrs
[15] = Tmax in Sprague-Dawley rat at 10 mg/kg, po measured upto 24 hrs by LC-MS/MS analysis; type: ADME, organism-based; details: in vivo
[16] = Clearance in Sprague-Dawley rat at 10 mg/kg, po measured upto 24 hrs by LC-MS/MS analysis; type: ADME, organism-based; details: in vivo
[17] = Half life in Sprague-Dawley rat at 5 mg/kg, iv measured upto 24 hrs by LC-MS/MS analysis; type: ADME, organism-based; details: in vivo
[18] = Tmax in Sprague-Dawley rat at 5 mg/kg, iv measured upto 24 hrs by LC-MS/MS analysis; type: ADME, organism-based; details: in vivo
[19] = AUC (0 to 24 hrs) in Sprague-Dawley rat at 5 mg/kg, iv measured upto 24 hrs by LC-MS/MS analysis; type: ADME, organism-based; design: route intravenous, dose 5 mg/kg, time <=24; details: in vivo
[20] = MRT (0 to t) in Sprague-Dawley rat at 5 mg/kg, iv measured upto 24 hrs by LC-MS/MS analysis; type: ADME, organism-based; details: in vivo
[21] = Clearance in Sprague-Dawley rat at 5 mg/kg, iv measured upto 24 hrs by LC-MS/MS analysis; type: ADME, organism-based; details: in vivo
[22] = Plasma concentration in ICR mouse at 15 mg/kg, po measured after 90 mins by LC-MS/MS analysis; type: ADME, organism-based
[23] = Toxicity in ICR mouse assessed as reduction in body weight at 15 mg/kg, po; type: organism-based; details: in vivo
[24] = organism: Homo sapiens; assay: Selectivity index, ratio of IC50 for ERK1 (unknown origin) to IC50 for GSK-3 beta (unknown origin) by ATP competitive based analysis
[25] = organism: Homo sapiens; assay: Selectivity index, ratio of IC50 for ERK2 (unknown origin) to IC50 for GSK-3 beta (unknown origin) by ATP competitive based analysis
[26] = organism: Homo sapiens; assay: Selectivity index, ratio of IC50 for p38MAPK beta (unknown origin) to IC50 for GSK-3 beta (unknown origin) by ATP competitive based analysis
[27] = organism: Homo sapiens; assay: Selectivity index, ratio of IC50 for JNK3 (unknown origin) to IC50 for GSK-3 beta (unknown origin) by ATP competitive based analysis
[28] = organism: Homo sapiens; assay: Selectivity index, ratio of IC50 for CDK2 (unknown origin) to IC50 for GSK-3 beta (unknown origin) by ATP competitive based analysis
[29] = organism: Homo sapiens; assay: Selectivity index, ratio of IC50 for CDK4 (unknown origin) to IC50 for GSK-3 beta (unknown origin) by ATP competitive based analysis
[30] = organism: Homo sapiens; assay: Selectivity index, ratio of IC50 for CDK9 (unknown origin) to IC50 for GSK-3 beta (unknown origin) by ATP competitive based analysis
[31] = organism: Homo sapiens; assay: Selectivity index, ratio of IC50 for CDK7 (unknown origin) to IC50 for GSK-3 beta (unknown origin) by ATP competitive based analysis
[32] = tested on: Mus musculus; assay: Cognitive enhancing effect in ICR mouse model of scopolamine-induced cognitive dysfunction assessed as reduction in memory impairment by measuring increase in number of virtual platform crossings at 15 mg/kg, po by Morris water maze test; type: functional, organism-based
[33] = Toxicity in ICR mouse model of scopolamine-induced cognitive dysfunction assessed as effect on locomotor activity by measuring effect on swimming speed at 15 mg/kg, po by Morris water maze test; type: organism-based; details: in vivo
[34] = in vitro; details: PAMPA
Description: Effective permeability of compound in PBS/EtOH buffer (7:3) at 25 ug/ml incubated for 18 hrs by PAMPA-BBB assay

[35] = target: Glycogen synthase kinase-3 beta (Homo sapiens, UniProt P49841); assay: biochemical
Chain of Glycogen synthase kinase-3 beta (Homo sapiens, UniProt P49841) (P49841 whole entry): as the sequence (Q9WV60 whole entry) above, with P390T, A392T, T400A, A402T counted along it
Description: Inhibition of recombinant human N-terminal His6-tagged GSK3beta H350L mutant expressed in baculovirus infected Sf21 cells using prephosphorylated polypeptide as substrate incubated for 1 min followed by substrate addition and measured after 30 mins by Kinase-Glo luminescence assay

Question: With NC(=O)c1sc(-c2ccnc(NC(=O)C3CC3)c2)nc1OCCCC1CCN(Cc2ccc(F)cc2)CC1 as the compound, how does the IC50 [1] read?
Answer: Its IC50 is 3.41 µM.

Question: And the IC50 [2]?
Answer: Its IC50 is over 0.3 µM.

Question: And the IC50 [3]?
Answer: Its IC50 is over 0.3 µM.

Question: And the IC50 [4]?
Answer: The IC50 was over 0.3 µM.

Question: What about the IC50 [5] of the same compound?
Answer: Its IC50 is over 0.3 µM.

Question: And the IC50 [6]?
Answer: Its IC50 is over 0.3 µM.

Question: And the DC50 [7]?
Answer: Its DC50 is 0.38 µM.

Question: And the Imax [8]?
Answer: The Imax was 93%.

Question: And the Activity [9]?
Answer: Its Activity is “inactive”.

Question: What about the Activity [10] of the same compound?
Answer: The Activity was 32.9%.

Question: What about the Activity [11] of the same compound?
Answer: The Activity was “Dose-dependent effect”.

Question: What about the inhibition at 8 µM [12] of the same compound?
Answer: The inhibition at 8 µM was 100%.

Question: What about the Activity [13] of the same compound?
Answer: Its Activity is “Active”.

Question: What about the Activity [14] of the same compound?
Answer: The Activity was “Active”.

Question: What about the Tmax [15] of the same compound?
Answer: The Tmax was 4.7 h.

Question: And the CL/F [16]?
Answer: Its CL/F is 112 mL/min/kg.

Question: What about the half-life [17] of the same compound?
Answer: The half-life was 4.3 h.

Question: And the Tmax [18]?
Answer: Its Tmax is 4.98 min.

Question: And the AUC(0-t) [19]?
Answer: The AUC(0-t) was 1960 ng·h/mL.

Question: What about the MRT last at 24 h [20] of the same compound?
Answer: Its MRT last at 24 h is 3.3 h.

Question: And the clearance [21]?
Answer: Its clearance is 42.5 mL/min/kg.

Question: And the concentration at 1.5 h [22]?
Answer: Its concentration at 1.5 h is 265 ng/mL.

Question: And the Activity [23]?
Answer: Its Activity is “Non-Toxic”.

Question: And the Ratio IC50 [24]?
Answer: The Ratio IC50 was 200.

Question: What about the Ratio IC50 [25] of the same compound?
Answer: Its Ratio IC50 is 200.

Question: What about the Ratio IC50 [26] of the same compound?
Answer: The Ratio IC50 was 200.

Question: What about the Ratio IC50 [27] of the same compound?
Answer: The Ratio IC50 was 200.

Question: And the Ratio IC50 [28]?
Answer: The Ratio IC50 was 200.

Question: What about the Ratio IC50 [29] of the same compound?
Answer: Its Ratio IC50 is 200.

Question: What about the Ratio IC50 [30] of the same compound?
Answer: Its Ratio IC50 is 200.

Question: What about the Ratio IC50 [31] of the same compound?
Answer: The Ratio IC50 was 200.

Question: What about the Activity [32] of the same compound?
Answer: The Activity was “Active”.

Question: And the Activity [33]?
Answer: The Activity was “Non-Toxic”.

Question: And the Papp at 18 h, 25 ug/ml [34]?
Answer: The Papp at 18 h, 25 ug/ml was 8.4 ×10⁻⁶ cm/s.

Question: What about the IC50 [35] of the same compound?
Answer: Its IC50 is 0.003 µM.
